Assay results from patent US11806402B2, “Sulfoalkyl ether cyclodextrin compositions” (CyDex Pharmaceuticals, Inc., priority 2008, dated 2023).

Assay: Assay and impurity analysis (HPLC) of heat-stressed SBE6.6-β-CD/glucocorticosteroid (budesonide) formulation
Format: physicochemical
Conditions: glucocorticosteroid standard, no SBE6.6-β-CD lot
Experimental: Comparative evaluation of the stability of various lots of SBE6.6-β-CD that underwent a single or a double treatment with activated carbon (according to Examples 27 and 24, respectively) were formulated with a glucocorticosteroid (budesonide) and an excipient (water), and were examined by HPLC. The general procedure is provided below.
SBE6.6-β-CD solutions (7.5% w/w, formulated with SBE6.6-β-CD Lot Nos. 17CX01.HQ00025, 17CX01.HQ00029 and 17CX01.HQ00041), were prepared by dissolving about 7.5 grams of SBE6.6-β-CD (corrected for water content) in 100 mL of water. A glucocorticosteroid was weighed in amounts in excess of the anticipated solubilities directly into TEFLON®-lined screw-capped containers. Approximately 275 μg/mL of the glucocorticoid steroid was vigorously stirred for 2 hours in an amber glass container. At the end of the agitation time, the glucocorticosteroid solution was filtered using a 0.24 μm syringe filter.
Control solution samples were removed before autoclaving. Aliquots of the solutions were autoclaved for four 20 minute cycles at 121° C. The samples were then analyzed by HPLC to determine assay content and the level of impurities formed during the heating cycles. Solution samples of SBE6.6-β-CD were prepared and analyzed on a PERKIN ELMER Lambda 35 UV/Vis spectrophotometer, scanning from 190 nm to 400 nm at a speed of 240 nm/min and a slit width of 1.0 nm to determine the UV content.

Assay GS Total: 99.385 Area %
Assay R-GS: 51.888 Area %
Assay S-GS: 47.497 Area %
Assay Δ: 0%
Impurities A: 0.001 Area %
Impurities B (S-11-keto-derivative): 0.127 Area %
SMILES: CCCC1O[C@@H]2C[C@H]3[C@@H]4CCC5=CC(=O)C=C[C@]5(C)[C@H]4[C@@H](O)C[C@]3(C)[C@]2(C(=O)CO)O1 (stereo partly drawn) [Glucocorticosteroid (“GS”) Std., budesonide]
